How the values were obtained:
[1] = molecular target: T1, Melatonin receptor type 1B (Homo sapiens, UniProt P49286); assay: Binding affinity against human Melatonin receptor type 1B by using 2-[125I]iodomelatonin as radioligand
T1 sequence (P49286 whole entry): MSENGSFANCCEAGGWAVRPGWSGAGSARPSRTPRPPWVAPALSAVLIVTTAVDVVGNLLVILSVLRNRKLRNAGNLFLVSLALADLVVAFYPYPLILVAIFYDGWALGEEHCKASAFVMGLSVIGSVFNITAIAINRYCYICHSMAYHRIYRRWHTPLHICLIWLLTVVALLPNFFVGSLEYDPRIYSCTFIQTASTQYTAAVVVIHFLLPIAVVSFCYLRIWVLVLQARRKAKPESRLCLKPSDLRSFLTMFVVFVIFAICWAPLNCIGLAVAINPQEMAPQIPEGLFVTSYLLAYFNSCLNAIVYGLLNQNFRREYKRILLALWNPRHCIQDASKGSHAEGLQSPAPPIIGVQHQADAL

[2] = molecular target: Melatonin receptor type 1A (Homo sapiens, UniProt P48039); assay: Binding affinity against human Melatonin receptor type 1A by using 2-[125I]iodomelatonin as radioligand
Melatonin receptor type 1A, sequence (P48039 whole entry): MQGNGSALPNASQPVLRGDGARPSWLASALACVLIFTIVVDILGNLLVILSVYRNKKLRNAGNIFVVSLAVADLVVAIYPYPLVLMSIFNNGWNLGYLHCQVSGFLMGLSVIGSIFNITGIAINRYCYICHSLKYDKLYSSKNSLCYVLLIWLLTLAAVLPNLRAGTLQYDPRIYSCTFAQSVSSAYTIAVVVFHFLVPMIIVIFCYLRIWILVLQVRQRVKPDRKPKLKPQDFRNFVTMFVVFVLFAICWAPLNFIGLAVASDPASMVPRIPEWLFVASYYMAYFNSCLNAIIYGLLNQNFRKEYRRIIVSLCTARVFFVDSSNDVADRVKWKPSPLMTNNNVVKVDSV

Melatonin receptor [3] = molecular target: T2, Melatonin receptor (Homo sapiens, UniProt P48039+P49286); assay: Intrinsic activity against human melatonin receptor (MT); format: protein assay
T2 sequence (P48039 whole entry, looked up, one chain of several): as the sequence (P48039 whole entry) above

Melatonin receptor [4] = molecular target: T2, Melatonin receptor; assay: Agonist activity for its ability to inhibit forskolin-stimulated cAMP accumulation against MT1 receptor; format: functional
[5] = molecular target: Melatonin receptor type 1B (Homo sapiens) (UniProt P49286); assay: Agonist activity for its ability to inhibit forskolin-stimulated cAMP accumulation against MT2 receptor
[6] = molecular target: Melatonin receptor type 1B (Homo sapiens) (UniProt P49286); assay: Intrinsic activity against human melatonin receptor (MT)

## CCCC(=O)NCCCc1cccc2nc(C(C)C)oc12
[1]
  Ki: 16 nM
[2]
  Ki: 119 nM

## CCCc1nc2cccc(CCCNC(=O)CC)c2o1
[1]
  Ki: 27 nM
[2]
  Ki: 51 nM

## CCNC(=O)NCCCc1cccc2nc(C(C)C)oc12
[1]
  Ki: 52 nM
[2]
  Ki: 194 nM

## CCC(=O)NCCCc1cccc2nc(-c3ccccc3)oc12
[1]
  Ki: 10 nM
[2]
  Ki: 13.1 nM

## CC(=O)NCCCc1cccc2nc(C(C)C)oc12
[1]
  Ki: 35 nM
[2]
  Ki: 116 nM

## CCCc1nc2cccc(CCCNC(=O)C3CC3)c2o1
[1]
  Ki: 7.6 nM
[2]
  Ki: 44 nM

## CC(C)c1nc2cccc(CCCNC(=O)C3CC3)c2o1
[1]
  Ki: 114 nM
[2]
  Ki: 34 nM

## O=C(NCCCc1cccc2nc(-c3ccccc3)oc12)C1CC1
[1]
  Ki: 38 nM
[2]
  Ki: 23 nM

## CCc1nc2cccc(CCCNC(=O)C3CC3)c2o1
[1]
  Ki: 4.7 nM
[2]
  Ki: 4.5 nM

## CCCC(=O)NCCCc1cccc2nc(CCC)oc12
[1]
  Ki: 22 nM
[2]
  Ki: 166 nM

## CC(C)C(=O)NCCCc1cccc2nc(C(C)C)oc12
[1]
  Ki: 88 nM
[2]
  Ki: 40 nM

## Cc1nc2cccc(CCCNC(=O)C(C)C)c2o1
[1]
  Ki: 2.3 nM
[2]
  Ki: 3 nM

## CCCC(=O)NCCCc1cccc2nc(C)oc12
[1]
  Ki: 2.2 nM
[2]
  Ki: 2.3 nM

## CC(=O)NCCCc1cccc2nc(CCCCc3ccccc3)oc12
[1]
  Ki: 16 nM
[2]
  Ki: 1.3 nM

## CC(=O)NCCCc1cccc2nc(-c3ccccc3)oc12
[1]
  Ki: 89 nM
[2]
  Ki: 40 nM

## CCCc1nc2cccc(CCCNC(C)=O)c2o1
[1]
  Ki: 35 nM
[2]
  Ki: 183 nM

## O=C(NCCCc1cccc2nc(CCCCc3ccccc3)oc12)C1CC1
[1]
  Ki: 22 nM
[2]
  Ki: 0.63 nM

## CCCc1nc2cccc(CCCNC(=O)NCC)c2o1
[1]
  Ki: 36 nM
[2]
  Ki: 492 nM

## CCC(=O)NCCCc1cccc2nc(C)oc12
[1]
  Ki: 2.8 nM
Melatonin receptor [3]
  Activity: 0.98
Melatonin receptor [4]
  EC50: 0.26 nM
[2]
  Ki: 2.8 nM

## CC(=O)NCCCc1cccc2ncoc12
[1]
  Ki: 4.3 nM
[2]
  Ki: 30 nM

## CCNC(=O)NCCCc1cccc2nc(CC)oc12
[1]
  Ki: 12 nM
[2]
  Ki: 75 nM

## CCCC(=O)NCCCc1cccc2ncoc12
[1]
  Ki: 3.7 nM
[2]
  Ki: 9.9 nM

## CC(=O)NCCCc1cccc2nc(C)oc12
[1]
  Ki: 5.3 nM
[2]
  Ki: 24 nM

## CCCC(=O)NCCCc1cccc2nc(CC)oc12
[1]
  Ki: 1 nM
[2]
  Ki: 8.1 nM

## CCc1nc2cccc(CCCNC(=O)C(C)C)c2o1
[1]
  Ki: 4.5 nM
[2]
  Ki: 13.2 nM

## CCC(=O)NCCCc1cccc2ncoc12
[1]
  Ki: 1.8 nM
[2]
  Ki: 6.6 nM

## CCc1nc2cccc(CCCNC(C)=O)c2o1
[1]
  Ki: 2.3 nM
[2]
  Ki: 9 nM

## CC(C)C(=O)NCCCc1cccc2nc(-c3ccccc3)oc12
[1]
  Ki: 57 nM
[2]
  Ki: 87 nM

## CC(C)C(=O)NCCCc1cccc2nc(CCCCc3ccccc3)oc12
[1]
  Ki: 18 nM
[2]
  Ki: 1.3 nM

## CCNC(=O)NCCCc1cccc2nc(-c3ccccc3)oc12
[1]
  Ki: 61 nM
[2]
  Ki: 340 nM

## CCC(=O)NCCCc1cccc2nc(CCCCc3ccccc3)oc12
[1]
  Ki: 14 nM
[2]
  Ki: 0.76 nM

## CCCc1nc2cccc(CCCNC(=O)C(C)C)c2o1
[1]
  Ki: 29 nM
[2]
  Ki: 60 nM

## CCC(=O)NCCCc1cccc2nc(C(C)C)oc12
[1]
  Ki: 15 nM
[2]
  Ki: 142 nM

## CCNC(=O)NCCCc1cccc2nc(C)oc12
[1]
  Ki: 26 nM
[2]
  Ki: 50 nM

## Cc1nc2cccc(CCCNC(=O)C3CC3)c2o1
[5]
  EC50: 0.74 nM
[6]
  Activity: 0.96
[1]
  Ki: 2.7 nM
[2]
  Ki: 0.7 nM

## CCCC(=O)NCCCc1cccc2nc(-c3ccccc3)oc12
[1]
  Ki: 17 nM
[2]
  Ki: 60 nM

## CCC(=O)NCCCc1cccc2nc(CC)oc12
[1]
  Ki: 1 nM
[2]
  Ki: 3.5 nM

## CCCC(=O)NCCCc1cccc2nc(CCCCc3ccccc3)oc12
[1]
  Ki: 29 nM
[2]
  Ki: 3.3 nM

— ChEMBL document CHEMBL1146812 (Bioorg Med Chem Lett, 2004)
